Measurements from patent US11724998B2, “PXR agonists and uses thereof for gut barrier dysfunction treatment and prevention” (Albert Einstein College of Medicine, priority 2017, dated 2023).

What was measured:
AhR = molecular target: T1, AhR (Homo sapiens, UniProt P35869); assay: HTS nuclear receptor activation screen using LS180 cells (AhR); assay type: cell-based; details: data not shown
T1 sequence (P35869 11-848): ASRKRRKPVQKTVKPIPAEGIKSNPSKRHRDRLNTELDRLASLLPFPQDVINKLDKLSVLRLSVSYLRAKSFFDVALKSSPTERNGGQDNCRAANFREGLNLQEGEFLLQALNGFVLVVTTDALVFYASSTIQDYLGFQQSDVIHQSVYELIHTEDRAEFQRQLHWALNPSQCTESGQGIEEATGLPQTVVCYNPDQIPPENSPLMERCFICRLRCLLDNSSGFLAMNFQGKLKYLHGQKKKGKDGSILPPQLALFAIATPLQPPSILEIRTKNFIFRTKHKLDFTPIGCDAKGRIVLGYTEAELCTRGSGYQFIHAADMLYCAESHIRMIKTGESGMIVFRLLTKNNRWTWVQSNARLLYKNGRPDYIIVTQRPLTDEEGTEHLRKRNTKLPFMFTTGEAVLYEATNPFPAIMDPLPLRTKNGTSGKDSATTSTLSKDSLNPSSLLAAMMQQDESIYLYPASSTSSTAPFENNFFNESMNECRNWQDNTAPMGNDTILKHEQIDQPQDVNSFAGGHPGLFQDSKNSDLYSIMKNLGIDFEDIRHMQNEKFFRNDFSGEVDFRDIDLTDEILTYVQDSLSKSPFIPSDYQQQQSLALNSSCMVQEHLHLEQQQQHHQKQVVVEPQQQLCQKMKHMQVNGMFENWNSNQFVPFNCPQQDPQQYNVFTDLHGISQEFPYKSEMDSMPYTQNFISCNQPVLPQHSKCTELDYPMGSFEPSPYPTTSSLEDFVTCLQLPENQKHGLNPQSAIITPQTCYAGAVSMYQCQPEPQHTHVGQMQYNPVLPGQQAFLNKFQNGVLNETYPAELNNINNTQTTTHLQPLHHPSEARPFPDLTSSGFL

CDK5/p25 enzyme = CDK5/p25 enzyme (Homo sapiens, UniProt Q00535); assay: ADP-Glo kinase assay with CDK5/p25 enzyme; assay type: biochemical; details: up to 20 μM
Sequence of CDK5/p25 enzyme (Q00535 whole entry, species assumed): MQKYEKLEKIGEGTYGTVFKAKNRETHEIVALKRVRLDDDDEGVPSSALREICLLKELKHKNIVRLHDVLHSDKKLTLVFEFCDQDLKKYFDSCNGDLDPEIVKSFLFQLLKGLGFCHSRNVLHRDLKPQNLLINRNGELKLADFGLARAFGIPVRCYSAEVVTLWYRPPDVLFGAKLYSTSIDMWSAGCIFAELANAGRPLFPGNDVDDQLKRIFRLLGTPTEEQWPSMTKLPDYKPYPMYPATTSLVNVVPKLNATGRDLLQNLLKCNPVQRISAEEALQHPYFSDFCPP
Sequence of CDK5/p25 enzyme (Q15078 99-307 partner limits assumed, species assumed): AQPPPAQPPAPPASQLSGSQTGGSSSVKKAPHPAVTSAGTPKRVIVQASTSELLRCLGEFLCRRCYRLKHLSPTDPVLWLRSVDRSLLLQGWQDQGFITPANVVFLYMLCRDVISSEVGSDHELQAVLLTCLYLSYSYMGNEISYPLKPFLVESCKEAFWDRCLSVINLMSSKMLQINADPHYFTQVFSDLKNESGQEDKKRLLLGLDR
Experimental: FIG. 5. ADP-Glo kinase with CDK5/p25 enzyme. Michaelis-Menton fit of RLU values across FKK5 concentrations after enzyme and time of incubation was optimized. The fit is nearly similar with one curve describing all concentration effects. Km˜0.01483; Ki˜4.656e+099; Vmax˜53380.
IPA/Indoles can have weak (˜2 fold) but important effects on the activation of other nuclear receptors (e.g., CAR, LXR) (33). […] Some receptors, specifically CAR and LXR, can act to induce liver steatosis (79, 83-86) and hepatocarcinogenesis (CAR) (80, 84, 87-89) and thus, avoiding excessive activation of these nuclear receptors in the context of PXR activation would be important. […] CDK5 (along with CDK2) are important kinases that phosphorylate and inhibit PXR activation (90). Accordingly, based on the data, it is unlikely that FKK5 activates PXR via inhibition of CDK5.

plated hepatocytes = assay: LDH release assay in plated hepatocytes; assay type: cell-based; details: 24 h and 48 h exposure; FIG. 1
Experimental: FIG. 1A-1B. FKK compound cytotoxicity assay. (A) MTT cell cytotoxicity assay in LS180 cells lines (NCBI Bookshelf: world wide web ncbi.nlm.nih.gov/books/NBK144065/). […] (B) LDH release assay performed in plated hepatocytes after a 24 h and 48 h exposure. For both panels, assays were performed at least two times in triplicate.
A very unique feature of simple indole structures (FKK1-10) is that they are predicted to have very short systemic residence times limiting systemic drug exposure and any potential for off-target effects in organs other than the intestines (78).

PXR = molecular target: T2, PXR (Homo sapiens, UniProt O75469); assay: Isothermic titration calorimetry (ITC); assay type: binding; details: FIG. 11
T2 sequence (O75469 1-434): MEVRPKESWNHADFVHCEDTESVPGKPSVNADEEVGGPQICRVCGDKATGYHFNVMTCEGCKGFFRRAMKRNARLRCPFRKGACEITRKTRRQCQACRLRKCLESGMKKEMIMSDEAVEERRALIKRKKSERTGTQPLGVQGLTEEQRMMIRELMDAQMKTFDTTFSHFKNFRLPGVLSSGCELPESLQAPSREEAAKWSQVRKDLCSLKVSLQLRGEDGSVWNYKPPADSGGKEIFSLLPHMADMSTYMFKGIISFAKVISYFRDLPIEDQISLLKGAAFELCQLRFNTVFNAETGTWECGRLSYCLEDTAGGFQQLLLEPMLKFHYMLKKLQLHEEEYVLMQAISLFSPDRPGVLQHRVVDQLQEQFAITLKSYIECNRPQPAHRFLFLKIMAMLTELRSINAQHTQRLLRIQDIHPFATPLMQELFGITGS

- AhR activation (AhR): not AhR
- inhibition of CDK5/p25 enzyme (CDK5/p25 enzyme): does not inhibit
- binding to human PXR (PXR): efficient and direct binding
SMILES: O=C(c1ccncc1)c1cc2ccccc2n1S(=O)(=O)c1ccccc1 [FKK5]
- cytotoxicity in hepatocytes (plated hepatocytes): no cytotoxicity observed
